Our source for the AC50, IC50 and EC50 values is ChEMBL document CHEMBL1201862, “PubChem BioAssay data set” (2004).

Calls of active or inactive are those of the source.

In general, AC50 refers to the concentration giving half of the maximal activity seen. For orientation: IC50 means the point on the concentration scale where inhibition reaches its midpoint. Broadly, the EC50 is the midpoint of the concentration-response curve.

Experiment [1] has as its target T1, DNA repair protein RAD52 homolog (Homo sapiens, UniProt P43351).
T1 sequence (P43351 whole entry): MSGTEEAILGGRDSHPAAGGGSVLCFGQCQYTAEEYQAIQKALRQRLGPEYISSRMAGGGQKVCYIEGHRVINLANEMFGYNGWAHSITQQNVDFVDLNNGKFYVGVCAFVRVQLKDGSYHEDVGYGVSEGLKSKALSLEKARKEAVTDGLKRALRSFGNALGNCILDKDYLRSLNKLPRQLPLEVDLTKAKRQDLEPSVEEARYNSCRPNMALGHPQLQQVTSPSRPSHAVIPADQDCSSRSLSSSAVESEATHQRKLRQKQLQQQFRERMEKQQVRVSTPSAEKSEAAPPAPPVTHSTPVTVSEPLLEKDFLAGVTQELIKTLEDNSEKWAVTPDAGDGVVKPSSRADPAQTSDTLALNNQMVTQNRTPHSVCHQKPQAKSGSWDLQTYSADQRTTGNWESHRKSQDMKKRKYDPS
The class given is functional, biochemical.

Experiment [2] is described as follows: HGIII-sPLA2 enzyme inhibition potency – biochemical, QFRET, IC50, dose response (AID 743457).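 Further: green fluorescence rise as the enzyme cleaves BODIPY PC-A2 in liposomes.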
The nature of experiment [3]: T. cruzi growth inhibition in host cells, dose response, cell-based, plate reader, dry powder, set 2 (AID 652275). The class given is functional.
A short description of experiment [4]: viability loss in HEK293 kidney cells – cell-based, cherry-picks, set 5, cytotoxicity control, dose response (AID 1053117). It counts as functional.
In experiment [5] the target is T2, Sentrin-specific protease 8 (Homo sapiens, UniProt Q96LD8).
T2 sequence (Q96LD8 whole entry): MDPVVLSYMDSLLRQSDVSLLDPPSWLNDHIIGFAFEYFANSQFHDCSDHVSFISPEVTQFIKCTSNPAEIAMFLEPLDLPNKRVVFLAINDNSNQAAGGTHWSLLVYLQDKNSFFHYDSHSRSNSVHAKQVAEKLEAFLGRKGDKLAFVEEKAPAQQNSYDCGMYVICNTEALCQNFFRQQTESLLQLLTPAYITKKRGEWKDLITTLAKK
The experiment is described as follows: inhibition of human SENP8 cleavage activity – biochemical, luminescence, SAR follow-up (AID 504501). It counts as functional.

In a further experiment the target is T3, Caspase-3 (Homo sapiens, UniProt P42574).
T3 sequence (P42574 whole entry): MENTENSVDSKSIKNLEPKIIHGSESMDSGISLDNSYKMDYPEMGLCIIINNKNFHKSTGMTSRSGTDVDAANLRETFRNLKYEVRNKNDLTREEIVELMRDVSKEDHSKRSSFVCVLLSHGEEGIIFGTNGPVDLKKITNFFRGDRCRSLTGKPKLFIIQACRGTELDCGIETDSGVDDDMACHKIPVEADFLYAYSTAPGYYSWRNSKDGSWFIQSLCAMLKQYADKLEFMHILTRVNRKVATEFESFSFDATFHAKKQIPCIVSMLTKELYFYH
In words: SAR Analysis of small molecule inhibitors of Sentrin-specific proteases (SENPs) using a Caspase-3 Selectivity assay. [Related pubchem assays (depositor defined):AID2540, AID2599, AID434973, AID489001]. The class given is functional.

In experiment [6] the target is T4, Sentrin-specific protease 6 (Homo sapiens, UniProt Q9GZR1).
T4 sequence (Q9GZR1 whole entry): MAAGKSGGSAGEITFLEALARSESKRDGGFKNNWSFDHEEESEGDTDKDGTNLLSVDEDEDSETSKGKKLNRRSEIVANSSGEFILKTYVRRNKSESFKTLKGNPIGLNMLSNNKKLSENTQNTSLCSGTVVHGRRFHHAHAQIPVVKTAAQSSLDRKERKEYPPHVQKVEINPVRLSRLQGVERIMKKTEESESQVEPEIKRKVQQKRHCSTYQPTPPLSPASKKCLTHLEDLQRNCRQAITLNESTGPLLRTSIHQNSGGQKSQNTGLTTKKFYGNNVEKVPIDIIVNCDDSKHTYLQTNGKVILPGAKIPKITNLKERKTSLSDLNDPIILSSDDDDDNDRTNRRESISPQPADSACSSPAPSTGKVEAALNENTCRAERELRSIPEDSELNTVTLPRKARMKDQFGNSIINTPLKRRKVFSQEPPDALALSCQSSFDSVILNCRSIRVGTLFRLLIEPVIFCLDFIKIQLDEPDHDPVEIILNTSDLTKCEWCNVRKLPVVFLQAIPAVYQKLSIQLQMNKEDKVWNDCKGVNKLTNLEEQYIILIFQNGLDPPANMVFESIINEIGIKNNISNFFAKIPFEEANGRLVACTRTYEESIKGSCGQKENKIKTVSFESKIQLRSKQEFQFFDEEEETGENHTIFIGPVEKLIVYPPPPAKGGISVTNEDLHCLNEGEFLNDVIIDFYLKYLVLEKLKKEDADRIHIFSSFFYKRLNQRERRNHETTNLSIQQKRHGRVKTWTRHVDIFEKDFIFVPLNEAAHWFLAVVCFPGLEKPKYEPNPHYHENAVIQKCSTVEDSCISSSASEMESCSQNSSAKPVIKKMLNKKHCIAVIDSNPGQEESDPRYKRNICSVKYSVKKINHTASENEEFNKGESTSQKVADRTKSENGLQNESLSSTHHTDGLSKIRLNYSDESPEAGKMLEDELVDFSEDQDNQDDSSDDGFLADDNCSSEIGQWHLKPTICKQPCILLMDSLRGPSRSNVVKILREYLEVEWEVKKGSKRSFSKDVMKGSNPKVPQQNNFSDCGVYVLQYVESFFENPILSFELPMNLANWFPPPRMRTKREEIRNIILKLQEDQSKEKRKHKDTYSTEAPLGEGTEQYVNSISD
The experiment is described as follows: SAR Analysis of small molecule inhibitors of Sentrin-specific protease 6 (SENP6) using a Luminescent assay. [Related pubchem assays (depositor defined):AID2582, AID2599]. The class given is functional.

A short description of experiment [7]: cells. The class given is functional, cell-based.
Experiment [8] in a line: cells. It counts as functional, cell-based. The source holds these as a separate data set.
For experiment [9], the target named is T5, Estrogen receptor beta (Homo sapiens, UniProt Q92731).
Experiment [10] concerns the target T5, Estrogen receptor beta. In words: blockers of SRC-3 recruitment to ERβ – biochemical, ELISA, streptavidin-HRP readout, orthogonal assay, confirmation (AID 1060). For orientation: An ELISA detects its analyte on a solid surface through an enzyme-linked reagent.
For a further experiment, the target named is Major prion protein (Homo sapiens, UniProt P04156). It counts as functional, cell-based.
Experiment [11] is described as follows: cells.
Experiment [12] has as its target Protein-tyrosine kinase 2-beta (Homo sapiens, UniProt Q14289).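 Further: potency of inhibitors of PYK2 kinase phosphorylation of poly-GT substrate.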
For a further experiment, the target named is Paired box protein Pax-8 (Homo sapiens, UniProt Q06710). The experiment is described as follows: PAX8 transcriptional activity inhibition in RMG-I – RMG-I cells, luciferase, cherry-pick, dose response (AID 687027).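 Further: luciferase reporter driven by Pax8 target thyroperoxidase promoter measured by SteadyGlo luminescence.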 It counts as functional, cell-based.
A short description of experiment [13]: OVCAR-3 cell viability loss – plate reader, dry powder samples, PAX8 inhibitor project, dose response (AID 743044). It counts as functional, cell-based.
Experiment [14] is described as follows: IGROV1 cell killing – plate reader, dry powder samples, PAX8 inhibitor project, dose response (AID 743043). It counts as functional, cell-based. As to conditions: IGROV-1.
A short description of experiment [15]: general cell-killing toxicity readout – plate reader, dry powder samples, cytotoxicity control for PAX8 inhibitor project, dose response (AID 743021). It counts as functional, cell-based.
Experiment [16] in a line: P. falciparum Dd2 growth inhibitors, dose response, SYBR Green, cherry-picked samples (AID 1159567). It counts as functional, cell-based.
Experiment [17] in a line: toxicity to human hepatoma HepG2 cells – cell-based, cherry-picked samples, cytotoxicity control, dose response (AID 1159577). The class given is functional.
Experiment [18] in a line: general mammalian cell viability loss – inhibitor set, cherry-pick, set 2, cytotoxicity control for miR-122 modulator project, dose response (AID 720697). It counts as functional, cell-based.
The nature of experiment [19]: activation of miR-122 Renilla sensor silencing – cell-based, Huh7 psiCHECK-miR122, Renilla luciferase, cherry-picked, dose response (AID 651956).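 Further: huh7 hepatoma cells stably carrying a psiCHECK-2 miR-122 sensor plasmid; renilla luciferase signal reporting endogenous miR-122 activity after 48 h compound exposure.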 The class given is functional.
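Wherever EC50 is given: agonist potency from rise in intracellular calcium fluorescence.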

For the compound `N=C(N)/N=N/C(=N\Nc1ccccc1)c1ccc(Cl)cc1`, the AC50 in experiment [1] is 12.7 µM (active). In experiment [2], the IC50 was > 122 µM (inactive).

In the case of `CN(C)C(=O)c1cccc(-c2ccc([C@H]3[C@H](CO)N4CCCCN(C(=O)C5CCCC5)C[C@@H]34)cc2)c1`, the AC50 in experiment [3] is 0.065 µM (active).

Consider `CO[C@H]1CN(C)C(=O)c2cc(NC(=O)Nc3ccc(Cl)c(Cl)c3)ccc2OC[C@@H](C)NC[C@H]1C`, for which the AC50 in [4] is > 52 µM (inactive).

Take `O=C(Nc1ccccc1F)c1ccc(OCc2ccccc2)cc1`: the IC50 in [5] was > 99 µM (inactive); on Caspase-3 it was 10.3 µM (active); in experiment [6], > 99 µM (inactive); in “cells [7]”, > 29.9 µM (inactive). The EC50 in “cells [8]” is > 29.9 µM (inactive).

On to `CCC(Sc1ncnc2sc(C)c(C)c12)C(=O)OC` (stereo unspecified), for which the IC50 at Estrogen receptor beta [9] is 14.1 µM (active); on Estrogen receptor beta [10], < 0.023 µM (not active); at Major prion protein, 2.46 µM (active); in “cells [11]” it was > 138 µM (inactive).

With `COC(=O)CSc1nc(C(C)C)nc2ccccc12`, the IC50 is > 69.5 µM (not active) in experiment [12], 0.91 µM (active) on Major prion protein and > 138 µM (inactive) in the experiment “cells [11]”.

As for `O=C1CN(S(=O)(=O)Cc2ccccc2)C[C@@H]2[C@H](c3ccc(C#Cc4ccc(F)cc4)cc3)[C@H](CO)N12`, the AC50 at Paired box protein Pax-8 was 9.68 µM (active); in [13], 31 µM (active); in [14], 52.7 µM (active).

As to `COc1ccc(-c2ccc([C@@H]3[C@@H](CO)N4CCCCN(C(=O)Cc5ccccc5)C[C@H]34)cc2)cc1`, the AC50 was 41.5 µM (active) on Paired box protein Pax-8, 40.8 µM (active) in experiment [15], 6.32 µM (active) in experiment [16] and > 39 µM (inactive) in experiment [17].

`NC(=O)c1csc(-c2ccncc2)n1`: the AC50 in experiment [18] was 8.85 µM (active).

For the compound `CN(C)C(=O)c1ccc(NC(=O)c2cc(-n3cnnc3)ccc2Cl)cc1`, the AC50 in [19] is 1.1 µM (active); in experiment [18], 1.88 µM (active).
